# Patent publication US9586903B2, “Isoquinoline derivatives” (Hoffmann-La Roche Inc., priority 2013, dated 2017)
# Tested on: human embryonic stem cell derived neural stem cells (NSCs)
# Experiment: Neural stem cell proliferation assay (neurogenesis assay, ATP/CellTiterGlo readout)
# Assay type: cell-based
# Details: 4 days incubation
# Procedure: Neural Stem Cell Proliferation Assay
# Neurogenic properties of small molecules are determined based on the proliferation of human embryonic stem cell derived neural stem cells (NSCs) which were derived via a dual smad inhibition as previously described (Chambers, S. M., et al., Highly efficient neural conversion of human ES and iPS cells by dual inhibition of SMAD signaling, Nature biotechnology, 2009. 27(3): p. 275-80.)
# Compounds respond is measured by the increase in cells based on ATP levels (Promega:CellTiterGlo®) after an incubation period of 4 days.
# NSCs are thawed and expanded over 3 passages. On the 14th day, NSCs are seeded in Polyornithin/Laminin coated 384 well plates at a cell density of 21′000 cells/cm^2 in a media volume of 38 μl.
# 4 hours after cell seeding, compound solutions are added at a volume of 2 μl. Stock solutions of the compounds (water, 5% DMSO) are diluted to obtain a dose response (11 points, dilution factor is 2), ranging from 8 μM to 8 nM. Controls are run to consistently determine the neurogenic properties of the cells:
# Negative (neutral) control is cell culture Media (final DMSO concentration: 0.25%).
# 1. cell culture Media+100 ng/ml FGF2 (final DMSO concentration: 0.1%)
# 2. cell culture Media+20 ng/ml EGF (final DMSO concentration: 0.1%)
# 3. cell culture Media+100 ng/ml Wnt3a (final DMSO concentration: 0.1%)
# After 4 days incubation at 37° C., 5% CO2, the amount of ATP per well is quantified. The ATP concentration is proportional to the cell number. ATP is quantified by using the Promega CellTiterGlo® kit. The CellTiterGlo® reagents contain a cell lysis buffer, a thermo stable luciferase (UltraGlo™ recombinant luciferase), magnesium and luciferin. Luciferin reacts with ATP producing oxyluciferin, AMP and light. The luminescence signal is proportional to the ATP content.
# The value of negative (neutral) control is determined for each assay plate by taking the average of 16 negative control wells. The neurogenic compound response is calculated for each compound as (compound/Negative Control)*100.
# The values of EC150 from the dose response curve are determined for each test compound. The EC150 is the compound concentration at which 150% activity of control (100%) is reached.
# [1] = Homo sapiens, Neural stem cell, 96 h, Table 1, novel compounds, concentration at which 150% activity of control (100%) is reached
Structure (SMILES),EC (150% of control) [1] [µM],"EC (150% of control) (Table 2, known compounds) [µM]"
"O=C(NCc1ccccc1)c1ccc2cncc(-c3ccncc3)c2c1 [Example 1, N-Benzyl-4-(pyridin-4-yl)isoquinoline-6-carboxamide]",0.07,
"O=C(NCc1ccccc1)c1ccc2cncc(-c3ccc(Cl)cc3)c2c1 [Example 2, N-benzyl-4-(4-chlorophenyl)isoquinoline-6-carboxamide]",0.09,
"O=C(c1ccc2cncc(-c3ccc(Cl)cc3)c2c1)N1CCS(=O)(=O)CC1 [Example 3, [4-(4-Chloro-phenyl)-isoquinolin-6-yl]-(1,1-dioxo-thiomorpholin-4-yl)-methanone]",0.16,
"CC(C)(C)CNC(=O)c1ccc2cncc(-c3ccc(Cl)cc3)c2c1 [Example 4, 4-(4-Chloro-phenyl)-isoquinoline-6-carboxylic acid (2,2-dimethyl-propyl)-amide]",0.19,
"O=C(NC1CC1)c1ccc2cncc(-c3ccc(Cl)cc3)c2c1 [Example 5, 4-(4-Chlorophenyl)-N-cyclopropylisoquinoline-6-carboxamide]",0.03,
"O=C(NCC1CC1)c1ccc2cncc(-c3ccc(Cl)cc3)c2c1 [Example 6, 4-(4-Chlorophenyl)-N-(cyclopropylmethyl)isoquinoline-6-carboxamide]",0.19,
"CS(=O)(=O)CCNC(=O)c1ccc2cncc(-c3ccc(Cl)cc3)c2c1 [Example 7, 4-(4-Chlorophenyl)-N-(2-(methylsulfonyl)ethyl)isoquinoline-6-carboxamide]",0.07,
"O=C(NCc1cccnc1)c1ccc2cncc(-c3ccc(Cl)cc3)c2c1 [Example 8, 4-(4-Chlorophenyl)-N-(pyridin-3-ylmethyl)isoquinoline-6-carboxamide]",0.08,
"CS(=O)(=O)c1ccc(CNC(=O)c2ccc3cncc(-c4ccc(Cl)cc4)c3c2)cc1 [Example 9, 4-(4-chlorophenyl)-N-(4-(methylsulfonyl)benzyl)isoquinoline-6-carboxamide]",0.85,
"COc1ccccc1CNC(=O)c1ccc2cncc(-c3ccc(Cl)cc3)c2c1 [Example 10, 4-(4-Chlorophenyl)-N-(2-methoxybenzyl)isoquinoline-6-carboxamide]",0.09,
"O=C(NCc1ccccn1)c1ccc2cncc(-c3ccc(Cl)cc3)c2c1 [Example 11, 4-(4-Chlorophenyl)-N-(pyridin-2-ylmethyl)isoquinoline-6-carboxamide]",0.09,
"CS(=O)(=O)c1cccc(CNC(=O)c2ccc3cncc(-c4ccc(Cl)cc4)c3c2)c1 [Example 12, 4-(4-Chlorophenyl)-N-(3-(methylsulfonyl)benzyl)isoquinoline-6-carboxamide]",0.1,
"O=C(Nc1ccccc1)c1ccc2cncc(-c3ccc(Cl)cc3)c2c1 [Example 13, 4-(4-Chlorophenyl)-N-phenylisoquinoline-6-carboxamide]",0.71,
"O=C(NCC(F)(F)F)c1ccc2cncc(-c3ccc(Cl)cc3)c2c1 [Example 14, 4-(4-Chlorophenyl)-N-(2,2,2-trifluoroethyl)isoquinoline-6-carboxamide]",0.05,
"CC(C)NC(=O)c1ccc2cncc(-c3ccc(Cl)cc3)c2c1 [Example 15, 4-(4-Chlorophenyl)-N-isopropylisoquinoline-6-carboxamide]",0.98,
"O=C(NC1CCOC1)c1ccc2cncc(-c3ccc(Cl)cc3)c2c1 (stereo not shown) [Example 16, 4-(4-Chlorophenyl)-N-(tetrahydrofuran-3-yl)isoquinoline-6-carboxamide]",0.76,
"CC(C)(CO)NC(=O)c1ccc2cncc(-c3ccc(Cl)cc3)c2c1 [Example 17, 4-(4-Chlorophenyl)-N-(1-hydroxy-2-methylpropan-2-yl)isoquinoline-6-carboxamide]",2.5,

Structure (SMILES),EC (150% of control) [1] [µM],"EC (150% of control) (Table 2, known compounds) [µM]"
"O=C(c1ccc2cncc(-c3ccc(Cl)cc3)c2c1)N1CCOCC1 [Example 18, (4-(4-Chlorophenyl)isoquinolin-6-yl)(morpholino)methanone]",0.38,
"CN1CCN(C(=O)c2ccc3cncc(-c4ccc(Cl)cc4)c3c2)CC1 [Example 19, (4-(4-Chlorophenyl)isoquinolin-6-yl)(4-methylpiperazin-1-yl)methanone]",0.11,
"CC1(CNC(=O)c2ccc3cncc(-c4ccc(Cl)cc4)c3c2)CCC(=O)N1 (stereo not shown) [Example 20, 4-(4-Chlorophenyl)-N-((2-methyl-5-oxopyrrolidin-2-yl)methyl)isoquinoline-6-carboxamide]",0.18,
"CN(CC1CC1)C(=O)c1ccc2cncc(-c3ccc(Cl)cc3)c2c1 [Example 21, 4-(4-Chlorophenyl)-N-(cyclopropylmethyl)-N-methylisoquinoline-6-carboxamide]",0.21,
"O=C(c1ccc2cncc(-c3ccc(Cl)cc3)c2c1)N1CCC(O)C1 (stereo not shown) [Example 22, (4-(4-Chlorophenyl)isoquinolin-6-yl)(3-hydroxypyrrolidin-1-yl)methanone]",0.28,
"CC(C)(C)NC(=O)c1ccc2cncc(-c3ccc(Cl)cc3)c2c1 [Example 23, N-tert-Butyl-4-(4-chlorophenyl)isoquinoline-6-carboxamide]",0.73,
"O=C(NCCC(F)(F)F)c1ccc2cncc(-c3ccc(Cl)cc3)c2c1 [Example 24, 4-(4-Chlorophenyl)-N-(3,3,3-trifluoropropyl)isoquinoline-6-carboxamide]",0.06,
"CS(=O)(=O)NNC(=O)c1ccc2cncc(-c3ccc(Cl)cc3)c2c1 [Example 25, N′-(4-(4-Chlorophenyl)isoquinoline-6-carbonyl)methanesulfonohydrazide]",0.02,
"Cn1cc(NC(=O)c2ccc3cncc(-c4ccc(Cl)cc4)c3c2)cn1 [Example 26, 4-(4-Chlorophenyl)-N-(1-methyl-1H-pyrazol-4-yl)isoquinoline-6-carboxamide]",0.32,
"CC(NC(=O)c1ccc2cncc(-c3ccc(Cl)cc3)c2c1)c1cccc(S(C)(=O)=O)c1 (stereo not shown) [Example 27, 4-(4-Chlorophenyl)-N-(1-(3-(methylsulfonyl)phenyl)ethyl)isoquinoline-6-carboxamide]",0.79,
"CN(NC(=O)c1ccc2cncc(-c3ccc(Cl)cc3)c2c1)S(C)(=O)=O [Example 28, N′-(4-(4-Chlorophenyl)isoquinoline-6-carbonyl)-N-methylmethanesulfonohydrazide]",0.39,
"NC(=O)c1ccc2cncc(C3=CCOCC3)c2c1 [Example 29, 4-(3,6-Dihydro-2H-pyran-4-yl)isoquinoline-6-carboxamide]",0.14,
"N#Cc1ccc(-c2cncc3ccc(C(N)=O)cc23)cc1 [Example 30, 4-(4-Cyanophenyl)isoquinoline-6-carboxamide]",0.03,
"NC(=O)c1ccc2cncc(-c3ccc(Cl)cc3Cl)c2c1 [Example 31, 4-(2,4-Dichlorophenyl)isoquinoline-6-carboxamide]",0.06,
"NC(=O)c1ccc2cncc(-c3ccc(Cl)nc3)c2c1 [Example 32, 4-(6-Chloropyridin-3-yl)isoquinoline-6-carboxamide]",0.02,
"NC(=O)c1ccc2cncc(-c3ccc(Cl)cc3)c2c1 [Example 33, 4-(4-Chlorophenyl)isoquinoline-6-carboxamide]",,0.01
"NC(=O)c1ccc2cncc(-c3ccc(C(F)(F)F)cc3)c2c1 [Example 34, 4-(4-(Trifluoromethyl)phenyl)isoquinoline-6-carboxamide]",,0.02
